From ChEMBL document CHEMBL5108035, “Acriflavine, an Acridine Derivative for Biomedical Application: Current State of the Art” (J Med Chem, 2022)

Assays:
[1] = Anticancer activity against patient-derived human Colorectal tumor cells assessed as tumor growth inhibition incubated for 72 hrs by FMCA assay; assay type: functional, cell-based; details: Colorectal cancer cell
[2] = Anticancer activity against patient-derived human CLL tumor cells assessed as tumor growth inhibition incubated for 72 hrs by FMCA assay; assay type: functional, cell-based; details: CLL cell
[3] = Cytotoxicity against patient-derived human mononuclear cells assessed as cell growth inhibition incubated for 72 hrs by FMCA assay; assay type: toxicity, cell-based, Mononuclear cell line
[4] = system: Ovarian cancer cell line; assay: Anticancer activity against patient-derived human Ovarian tumor cells assessed as tumor growth inhibition incubated for 72 hrs by FMCA assay; assay type: functional, cell-based
[5] = system: Mahlavu; assay: Cytotoxicity against human Mahlavu cells assessed as inhibition of cell viability incubated upto 72 hrs by MTT assay; assay type: functional, cell-based

SMILES	IC50 [1]	IC50 [2]	IC50 at 72 h [3]	IC50 [4]	IC50 [5]
O=c1[nH]cc(F)c(=O)[nH]1 [FLUOROURACIL]	755 µM	658 µM	430 µM	563 µM	
CCc1c2c(nc3ccc(OC(=O)N4CCC(N5CCCCC5)CC4)cc13)-c1cc3c(c(=O)n1C2)COC(=O)[C@]3(O)CC [IRINOTECAN]	89.6 µM			75.3 µM	
CNC(=O)c1cc(Oc2ccc(NC(=O)Nc3ccc(Cl)c(C(F)(F)F)c3)cc2)ccn1 [SORAFENIB]					13.4 µM
